Data as given in US10329289B2, “6,7-dihydro-5H-pyrrolo[3,4-B]pyridin-5-one allosteric modulators of the M4 muscarinic acetylcholine receptor” (Merck Sharp & Dohme Corp., priority 2015, dated 2019).

Molecular target: T1, human M4 muscarinic acetylcholine receptor (Homo sapiens, UniProt P08173)
T1 construct: expressed in transfected cells; host or cells: CHO-K1
T1 sequence (P08173 1-479): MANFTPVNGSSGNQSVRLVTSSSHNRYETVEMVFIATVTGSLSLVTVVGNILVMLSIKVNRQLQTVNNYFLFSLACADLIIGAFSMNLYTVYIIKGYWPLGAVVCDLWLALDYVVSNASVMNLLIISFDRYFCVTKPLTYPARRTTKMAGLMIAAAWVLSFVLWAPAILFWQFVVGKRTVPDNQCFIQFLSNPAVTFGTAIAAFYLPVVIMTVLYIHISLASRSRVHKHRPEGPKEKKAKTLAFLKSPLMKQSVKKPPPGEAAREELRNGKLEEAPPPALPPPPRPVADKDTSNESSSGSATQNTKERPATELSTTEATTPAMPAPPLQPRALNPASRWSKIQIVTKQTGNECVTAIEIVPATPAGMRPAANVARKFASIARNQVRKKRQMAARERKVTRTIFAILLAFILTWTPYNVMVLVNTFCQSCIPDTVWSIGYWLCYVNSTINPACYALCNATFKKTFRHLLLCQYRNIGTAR
Assay: human FLIPR-based M4 PAM assay (Ca2+ mobilization, CHO-K1 cells with human M4 receptor and Gαqi5)
Format: cell-based
Settings: acetylcholine at 20% of maximum response, read-out: M4 PAM IP
How it was run: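 CHO-K1 cells stably expressing human M4 and chimeric Gαqi5 were dye-loaded ~1 h at 37 °C and read for Ca2+ fluorescence. Compound followed by acetylcholine at an EC20 (sometimes an EC70 third addition); inflection point from a 4-parameter logistic fit.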

How did the EC50 turn out when Cc1cc(OC2CCN(c3nc4c(cc3C)C(=O)NC4)CC2)ccc1F [Example 108, 2-(4-(4-fluoro-3-methylphenoxy)piperidin-1-yl)-3-methyl-6,7-dihydro-5H-pyrrolo[3,4-b]pyridin-5-one] was run?
Its EC50 is 59 nM.

Which EC50 does the source give for Cc1cc2c(nc1N1CCC(Oc3ccc4c(c3)CCO4)CC1)CNC2=O [Example 109, 2-(4-((2,3-dihydrobenzofuran-5-yl)oxy)piperidin-1-yl)-3-methyl-6,7-dihydro-5H-pyrrolo[3,4-b]pyridin-5-one] here?
The EC50 was 20 nM.

Which EC50 does the source give for Cc1cc2c(nc1N1CCC(Oc3ccc4c(c3)C(=O)OC4)CC1)CNC2=O [Example 110, 3-methyl-2-(4-((3-oxo-1,3-dihydro-2-benzofuran-5-yl)oxy)piperidin-1-yl)-6,7-dihydro-5H-pyrrolo[3,4-b]pyridin-5-one] here?
Its EC50 is 39 nM.

COC(=O)c1cncc(OC2CCN(c3nc4c(cc3C)C(=O)NC4)CC2)c1 [Example 111, methyl 5-((1-(3-methyl-5-oxo-6,7-dihydro-5H-pyrrolo[3,4-b]pyridin-2-yl)piperidin-4-yl)oxy)nicotinate] was tested. Which EC50 did it give?
Its EC50 is 4360 nM.

For Cc1cc2c(nc1N1CCC(Oc3ccc4c(c3)COCC4)CC1)CNC2=O [Example 112, 2-(4-(isochroman-7-yloxy)piperidin-1-yl)-3-methyl-6,7-dihydro-5H-pyrrolo[3,4-b]pyridin-5-one], which EC50 is on record?
Its EC50 is 20 nM.

How did the EC50 turn out when Cc1cc2c(nc1N1CCC(Oc3ccc4c(c3)OCCC4)CC1)CNC2=O [Example 113, 2-(4-(chroman-7-yloxy)piperidin-1-yl)-3-methyl-6,7-dihydro-5H-pyrrolo[3,4-b]pyridin-5-one] was run?
The EC50 was 50 nM.

How did the EC50 turn out when Cc1cc(OC2CCN(c3nc4c(cc3C)C(=O)NC4)CC2)cnc1C [Example 114, 2-(4-((5,6-dimethylpyridin-3-yl)oxy)piperidin-1-yl)-3-methyl-6,7-dihydro-5H-pyrrolo[3,4-b]pyridin-5-one] was run?
Its EC50 is 88 nM.

COc1ncc(OC2CCN(c3nc4c(cc3C)C(=O)NC4)CC2)cc1C [Example 115, 2-(4-((6-methoxy-5-methylpyridin-3-yl)oxy)piperidin-1-yl)-3-methyl-6,7-dihydro-5H-pyrrolo[3,4-b]pyridin-5-one] was tested. Which EC50 did it give?
Its EC50 is 119 nM.

For Cc1cc2c(nc1N1CCC(Oc3ccc4c(c3)CCCO4)CC1)CNC2=O [Example 116, 2-(4-(chroman-6-yloxy)piperidin-1-yl)-3-methyl-6,7-dihydro-5H-pyrrolo[3,4-b]pyridin-5-one], which EC50 is on record?
The EC50 was 45 nM.

For Cc1cc2c(nc1N1CCC(Oc3ccc4[nH]nc(C)c4c3)CC1)CNC2=O [Example 117, 3-methyl-2-(4-((3-methyl-1H-indazol-5-yl)oxy)piperidin-1-yl)-6,7-dihydro-5H-pyrrolo[3,4-b]pyridin-5-one], which EC50 is on record?
The EC50 was 17 nM.

With Cc1cc2c(nc1N1CCC(Oc3ccc4c(c3)CCC(=O)N4)CC1)CNC2=O [Example 118, 6-((1-(3-methyl-5-oxo-6,7-dihydro-5H-pyrrolo[3,4-b]pyridin-2-yl)piperidin-4-yl)oxy)-3,4-dihydroquinolin-2(1H)-one] as the molecule, how does the EC50 read?
Its EC50 is 141 nM.

Cc1ccc(OC2CCN(c3nc4c(cc3C)C(=O)NC4)CC2)cc1C [Example 119, 2-(4-(3,4-dimethylphenoxy)piper-idin-1-yl)-3-methyl-6,7-dihydro-5H-pyrrolo[3,4-b]pyridin-5-one] was tested. Which EC50 did it give?
Its EC50 is 149 nM.

Cc1cc2c(nc1N1CCC(Oc3ccc(OCC(F)(F)F)nc3)CC1)CNC2=O [Example 120, 3-methyl-2-(4-((6-(2,2,2-trifluoroethoxy)pyridin-3-yl)oxy)piperidin-1-yl)-6,7-dihydro-5H-pyrrolo[3,4-b]pyridin-5-one] was tested. Which EC50 did it give?
The EC50 was 256 nM.

How did the EC50 turn out when Cc1cc2c(nc1N1CCC(Oc3ccc4c(c3)CCOC4=O)CC1)CNC2=O [Example 121, 3-methyl-2-(4-((1-oxoisochroman-6-yl)oxy)piperidin-1-yl)-6,7-dihydro-5H-pyrrolo[3,4-b]pyridin-5-one] was run?
The EC50 was 1920 nM.

How did the EC50 turn out when Cc1nc2ccc(OC3CCN(c4nc5c(cc4C)C(=O)NC5)CC3)cc2s1 [Example 122, 3-methyl-2-(4-((2-methylbenzo[d]thiazol-6-yl)oxy)piperidin-1-yl)-6,7-dihydro-5H-pyrrolo[3,4-b]pyridin-5-one] was run?
Its EC50 is 2110 nM.

How did the EC50 turn out when Cc1nc2cc(OC3CCN(c4nc5c(cc4C)C(=O)NC5)CC3)ccc2o1 [Example 123, 3-methyl-2-(4-((2-methylbenzo[d]oxazol-5-yl)oxy)piperidin-1-yl)-6,7-dihydro-5H-pyrrolo[3,4-b]pyridin-5-one] was run?
The EC50 was 144 nM.

Which EC50 does the source give for Cc1cc2c(nc1N1CCC(Oc3ccc(OC(F)(F)F)nc3)CC1)CNC2=O [Example 124, 3-methyl-2-(4-((6-(trifluoromethoxy)pyri-din-3-yl)oxy)piperidin-1-yl)-6,7-dihydro-5H-pyrrolo[3,4-b]pyridin-5-one] here?
Its EC50 is 362 nM.

With Cc1cc2c(nc1N1CCC(Oc3ccc4c(c3)C(C)(C)CCO4)CC1)CNC2=O [Example 125, 2-(4-((4,4-dimethylchroman-6-yl)oxy)piperidin-1-yl)-3-methyl-6,7-dihydro-5H-pyrrolo[3,4-b]pyridin-5-one] as the molecule, how does the EC50 read?
Its EC50 is 612 nM.

Cc1cc2c(nc1N1CCC(Oc3ccc4c(c3)COC4(C)C)CC1)CNC2=O [Example 126, 2-(4-((1,1-dimethyl-1,3-dihydro-2-benzofuran-5-yl)oxy)piperidin-1-yl)-3-methyl-6,7-dihydro-5H-pyrrolo[3,4-b]pyridin-5-one] was tested. Which EC50 did it give?
Its EC50 is 216 nM.

With Cc1cc2c(nc1N1CCC(Oc3ccc4c(c3)CCC(C)(C)O4)CC1)CNC2=O [Example 127, 2-(4-((2,2-dimethylchroman-6-yl)oxy)piperidin-1-yl)-3-methyl-6,7-dihydro-5H-pyrrolo[3,4-b]pyridin-5-one] as the molecule, how does the EC50 read?
The EC50 was 480 nM.

Cc1cc2c(nc1N1CCC(Oc3ccc4ccc(=O)[nH]c4c3)CC1)CNC2=O [Example 128, 7-((1-(3-methyl-5-oxo-6,7-dihydro-5H-pyrrolo[3,4-b]pyridin-2-yl)piperidin-4-yl)oxy)quinolin-2(1H)-one] was tested. Which EC50 did it give?
The EC50 was 2370 nM.

With Cc1cc2c(nc1N1CCC(Oc3ccc4c(c3)c(C)nn4C)CC1)CNC2=O [Example 129, 2-(4-((1,3-dimethyl-1H-indazol-5-yl)oxy)piperidin-1-yl)-3-methyl-6,7-dihydro-5H-pyrrolo[3,4-b]pyridin-5-one] as the molecule, how does the EC50 read?
The EC50 was 1090 nM.

Which EC50 does the source give for Cc1cc2c(nc1N1CCC(Oc3ccc4c(c3)C(C)(C)CO4)CC1)CNC2=O [Example 130, 2-(4-((3,3-dimethyl-2,3-dihydrobenzofuran-5-yl)oxy)piperidin-1-yl)-3-methyl-6,7-dihydro-5H-pyrrolo[3,4-b]pyridin-5-one] here?
The EC50 was 105 nM.

Which EC50 does the source give for Cc1cc2c(nc1N1CCC(Oc3ccccn3)CC1)CNC2=O [Example 131, 3-methyl-2-(4-(pyridin-2-yloxy)piperidin-1-yl)-6,7-dihydro-5H-pyrrolo[3,4-b]pyridin-5-one] here?
The EC50 was 1520 nM.

Cc1cc2c(nc1N1CCC(Oc3ccc4c(c3)OCCO4)CC1)CNC2=O [Example 132, 2-(4-((2,3-dihydrobenzo[b][1,4]dioxin-6-yl)oxy)piperidin-1-yl)-3-methyl-6,7-dihydro-5H-pyrrolo[3,4-b]pyridin-5-one] was tested. Which EC50 did it give?
The EC50 was 30 nM.

With Cc1cc2c(nc1N1CCC(Oc3ccc4c(c3)OCC(=O)N4)CC1)CNC2=O [Example 133, 7-((1-(3-methyl-5-oxo-6,7-dihydro-5H-pyrrolo[3,4-b]pyridin-2-yl)piperidin-4-yl)oxy)-2H-benzo[b][1,4]oxazin-3(4H)-one] as the molecule, how does the EC50 read?
The EC50 was 611 nM.

With Cc1ccc(OC2CCN(c3nc4c(cc3C)C(=O)NC4)CC2)cc1F [Example 134, 2-(4-(3-fluoro-4-methylphenoxy)piperidin-1-yl)-3-methyl-6,7-dihydro-5H-pyrrolo[3,4-b]pyridin-5-one] as the molecule, how does the EC50 read?
The EC50 was 167 nM.

How did the EC50 turn out when Cc1cc2c(nc1N1CCC(Oc3ccc4c(c3)C(=O)NCC4)CC1)CNC2=O [Example 135, 7-((1-(3-methyl-5-oxo-6,7-dihydro-5H-pyrrolo[3,4-b]pyridin-2-yl)piperidin-4-yl)oxy)-3,4-dihydroisoquinolin-1(2H)-one] was run?
The EC50 was 217 nM.

How did the EC50 turn out when Cc1cc2c(nc1N1CCC(Oc3cnc4c(c3)oc(=O)n4C)CC1)CNC2=O [Example 136, 3-methyl-6-((1-(3-methyl-5-oxo-6,7-dihydro-5H-pyrrolo[3,4-b]pyridin-2-yl)piperidin-4-yl)oxy)oxazolo[4,5-b]pyridin-2(3H)-one] was run?
The EC50 was 3470 nM.

How did the EC50 turn out when Cc1cc2c(nc1N1CCC(Oc3ccc4c(c3)CN(C(=O)OC(C)(C)C)CC4)CC1)CNC2=O [Example 137, tert-butyl 7-((1-(3-methyl-5-oxo-6,7-dihydro-5H-pyrrolo[3,4-b]pyridin-2-yl)piperidin-4-yl)oxy)-3,4-dihydroisoquinoline-2(1H)-carboxylate] was run?
Its EC50 is 515 nM.

With Cc1cc2c(nc1N1CCC(Oc3ccc4c(c3)C(=O)N(C)CC4)CC1)CNC2=O [Example 138, 2-methyl-7-((1-(3-methyl-5-oxo-6,7-dihydro-5H-pyrrolo[3,4-b]pyridin-2-yl)piperidin-4-yl)oxy)-3,4-dihydroisoquinolin-1(2H)-one] as the molecule, how does the EC50 read?
Its EC50 is 390 nM.

With Cc1cc2c(nc1N1CCC(Oc3cnn(C)c3)CC1)CNC2=O [Example 139, 3-methyl-2-(4-((1-methyl-1H-pyrazol-4-yl)oxy)piperidin-1-yl)-6,7-dihydro-5H-pyrrolo[3,4-b]pyridin-5-one] as the molecule, how does the EC50 read?
Its EC50 is 106 nM.

With Cc1cc2c(nc1N1CCC(Oc3ccc4c(c3)C(=O)CO4)CC1)CNC2=O [Example 139A, 3-methyl-2-(4-((3-oxo-2,3-dihydrobenzofuran-5-yl)oxy)piperidin-1-yl)-6,7-dihydro-5H-pyrrolo[3,4-b]pyridin-5-one] as the molecule, how does the EC50 read?
Its EC50 is 628 nM.
